Like-named read-outs stand apart in the source and are kept apart here.
Assay: Plasma and tissue distribution in SD rats
Format: in vivo
Settings: for Kp / AUC(0-t): rat, 10 mg/kg; for AUC(0-t): plasma
Text: The following Example describes the methods and data used to evaluate the tissue distribution of TYK2 inhibitors following the administration of either compound 1 or compound 2.
Thirty (30, 15/sex) SD rats supplied by Beijing Vital River Laboratory Animal Technology Co., Ltd. were used in this study. The animals were confirmed to be healthy before being assigned to the study. The room (s) was controlled and monitored for relative humidity (targeted mean range 40% to 70%) and temperature (targeted mean range 20° C. to 26° C.) with 15 or above air changes/hour. The room was on a 12-hour light/dark cycle except when interruptions were necessitated by study activities. Fresh drinking water (reverses osmosis) was available to all animals, ad libitum. Certified animal diet from certified vendor was available to all animals, ad libitum.
Animals were weighed prior to dose administration to calculate the actual dose volume. The body weights were in the range from 245.39 to 276.33 g for males and 182.29 to 215.69 g for females on the first dosing day. The animals in Groups 1 and 2 received a single oral gavage administration of test compound 1. Cage-side observations for the general health condition and appearance of the animal were performed before and after dosing and at each time point of sample collection. Unusual observations were recorded throughout the duration of the study.
The vehicle was 0.5% methyl cellulose (4000 cps) in water. The formulation was prepared according to the following steps. Group 1: 25.95 mg of compound 1 was weighed into a glass vial. 5000 μL of vehicle was added into the vial and stirred for 30 min at 1700 rpm to get a homogenous opaque suspension. 5000 μL of vehicle was added into the vial and stirred for 10 min at 1700 rpm to get a homogenous opaque suspension. 5000 μL+5000 μL+5000 μL+924 μL of vehicle was added into the vial and stirred for 10 min at 1700 rpm to get a homogenous opaque suspension. Group 2: 81.66 mg of compound 1 was weighed into a glass vial. 5000 μL of vehicle was added into the vial and stirred for 30 min at 1700 rpm to get a homogenous opaque suspension. 5000 μL of vehicle was added into the vial and stirred for 10 min at 1700 rpm to get a homogenous opaque suspension. 10 mL+10 mL+10 mL+20 mL+10 mL+10 mL+1580 μL of vehicle was added into the vial and stirred for 10 min at 1700 rpm to get a homogenous opaque suspension.
Blood (about 0.2 mL) was collected at each time point via jugular vein puncture from each study animal. The actual time for each sample collection was recorded. The acceptable deviations on sampling time were ±1 min for the time points pre-dose through 1 hour post-dose, and +5% of the nominal time for time points after 1 hour post-dose.
All blood samples were transferred into commercial tubes containing K2-EDTA. After blood was collected, the samples were placed on wet ice and processed for plasma within 60 minutes of collection by centrifugation at approximately 4° C., 3200×g for 10 minutes, and then quickly frozen over dry ice and kept at −60° C. or lower until LC-MS/MS analysis.
Following terminal blood sample collection, animals were conducted CO2 euthanasia, the chest and abdominal cavities were opened carefully lengthwise using scissors to expose the internal organs in preparation of tissue perfusion. A needle was used to puncture a small hole into the left ventricle of the heart, and then clamped with a hemostat. […] Fluid (cold 1×PBS) was infused until the liver pales (typically 2-3 minutes). Following perfusion, 14 kinds of tissues (spleen, bone marrow, adipose, brain, heart, kidney, liver, lung, skin, small intestine, large intestine, eye, gonads, and bladder) were collected from each animal, respectively.
Each tissue was weighed and homogenized on wet ice using homogenizing buffer (MeOH/15 mM PBS 1:2) at the ratio of 1:9 (1 g tissue with 9 mL buffer). The tissue homogenate was kept at −60° C. or lower until LC-MS/MS analysis. […]

[1] = female SD rat, PO 10 mg/kg, Spleen
[2] = male SD rat, PO 10 mg/kg, Bladder
[3] = male SD rat, PO 10 mg/kg, Bone Marrow
[4] = male SD rat, PO 10 mg/kg, Epididymis & Testis
[5] = male SD rat, PO 10 mg/kg, Eyeball (left and right)
[6] = male SD rat, PO 10 mg/kg, Heart
[7] = male SD rat, PO 10 mg/kg, Kidney (left and right)
[8] = male SD rat, PO 10 mg/kg, Large intestine
[9] = male SD rat, PO 10 mg/kg, Liver
[10] = male SD rat, PO 10 mg/kg, Small intestine
[11] = male SD rat, PO 10 mg/kg, Spleen
[12] = ovary and uterus, female SD rat, PO 10 mg/kg, Ovary & Uterus

C[C@@H](c1ccc(Nc2cc(Nc3ncccc3S(C)(=O)=O)ncn2)nc1)N1CC2(COC2)C1 [Compound 1, (S)—N^4-(5-(1-(2-oxa-6-azaspiro[3.3]heptan-6-yl)ethyl)pyridin-2-yl)-N^6-(3-(methylsulfonyl)pyridin-2-yl)pyrimidine-4,6-diamine]
AUC0-24 [1]: 22131 ng·h/g
AUC0-inf [1]: 22145 ng·h/g
AUC0-last [1]: 19543 ng·h/g
Cmax [1]: 4430 ng/g
Tmax [1]: 0.5 h
half-life [1]: 2.62 h
Kp (female, SD, bladder, po, female SD rat, PO 10 mg/kg, Bladder, Tissue AUC0-last/Plasma AUC0-last, read-out: AUC Ratio): 5.12
Kp (female, SD, bone marrow, po, female SD rat, PO 10 mg/kg, Bone Marrow, Tissue AUC0-last/Plasma AUC0-last, read-out: AUC Ratio): 4.64
Kp (female, SD, eyeball (left and right), po, female SD rat, PO 10 mg/kg, Eyeball (left and right), Tissue AUC0-last/Plasma AUC0-last, read-out: AUC Ratio): 0.953
Kp (female, SD, fat, po, female SD rat, PO 10 mg/kg, Fat, Tissue AUC0-last/Plasma AUC0-last, read-out: AUC Ratio): 0.506
Kp (female, SD, heart, po, female SD rat, PO 10 mg/kg, Heart, Tissue AUC0-last/Plasma AUC0-last, read-out: AUC Ratio): 1.39
Kp (female, SD, kidney (left and right), po, female SD rat, PO 10 mg/kg, Kidney (left and right), Tissue AUC0-last/Plasma AUC0-last, read-out: AUC Ratio): 30.6
Kp (female, SD, large intestine, po, female SD rat, PO 10 mg/kg, Large intestine, Tissue AUC0-last/Plasma AUC0-last, read-out: AUC Ratio): 11.6
Kp (female, SD, liver, po, female SD rat, PO 10 mg/kg, Liver, Tissue AUC0-last/Plasma AUC0-last, read-out: AUC Ratio): 8.67
Kp (female, SD, lung, po, female SD rat, PO 10 mg/kg, Lung, Tissue AUC0-last/Plasma AUC0-last, read-out: AUC Ratio): 2.57
Kp (female, SD, ovary and uterus, po, female SD rat, PO 10 mg/kg, Ovary & Uterus, Tissue AUC0-last/Plasma AUC0-last, read-out: AUC Ratio): 1.29
Kp (female, SD, skin, po, female SD rat, PO 10 mg/kg, Skin, Tissue AUC0-last/Plasma AUC0-last, read-out: AUC Ratio): 1.11
Kp (female, SD, small intestine, po, female SD rat, PO 10 mg/kg, Small intestine, Tissue AUC0-last/Plasma AUC0-last, read-out: AUC Ratio): 17.5
Kp (female, SD, spleen, po, female SD rat, PO 10 mg/kg, Spleen, Tissue AUC0-last/Plasma AUC0-last, read-out: AUC Ratio): 5.73
Kp (female, Sprague-Dawley, ovaries, oral, SD rat, Ovaries, read-out: Tissue/Plasma Ratio (AUCinf)): 1.4
AUC(0-t) (female, Sprague-Dawley, po, female SD rat, PO 10 mg/kg, read-out: AUC0-24): 3610 ng·h/mL
AUC(0-t) (female, Sprague-Dawley, po, female SD rat, PO 10 mg/kg, read-out: AUC0-last): 3410 ng·h/mL
AUC0-24 [2]: 14526 ng·h/g
AUC0-inf [2]: 14666 ng·h/g
AUC0-last [2]: 14526 ng·h/g
Cmax [2]: 2980 ng/g
Tmax [2]: 2 h
half-life [2]: 3.38 h
AUC0-24 [3]: 10736 ng·h/g
AUC0-inf [3]: 10835 ng·h/g
AUC0-last [3]: 10736 ng·h/g
Cmax [3]: 2900 ng/g
Tmax [3]: 0.5 h
half-life [3]: 3.51 h
AUC0-24 [4]: 5163 ng·h/g
AUC0-last [4]: 5163 ng·h/g
AUC0-24 [5]: 1795 ng·h/g
AUC0-inf [5]: 1830 ng·h/g
AUC0-last [5]: 1332 ng·h/g
AUC0-24 (male SD rat, PO 10 mg/kg, Fat): 1703 ng·h/g
AUC0-inf (male SD rat, PO 10 mg/kg, Fat): 1716 ng·h/g
AUC0-last (male SD rat, PO 10 mg/kg, Fat): 1388 ng·h/g
AUC0-24 [6]: 3366 ng·h/g
AUC0-inf [6]: 3374 ng·h/g
AUC0-last [6]: 3004 ng·h/g
AUC0-24 [7]: 23128 ng·h/g
AUC0-inf [7]: 23415 ng·h/g
AUC0-last [7]: 23128 ng·h/g
AUC0-24 [8]: 45091 ng·h/g
AUC0-last [8]: 45091 ng·h/g
AUC0-24 [9]: 20288 ng·h/g
AUC0-inf [9]: 20534 ng·h/g
AUC0-last [9]: 20288 ng·h/g
Cmax [9]: 5400 ng/g
Tmax [9]: 0.5 h
half-life [9]: 3.87 h
AUC0-24 (male SD rat, PO 10 mg/kg, Lung): 5806 ng·h/g
AUC0-inf (male SD rat, PO 10 mg/kg, Lung): 5835 ng·h/g
AUC0-last (male SD rat, PO 10 mg/kg, Lung): 4926 ng·h/g
Cmax (male SD rat, PO 10 mg/kg, Lung): 1960 ng/g
Tmax (male SD rat, PO 10 mg/kg, Lung): 0.5 h
half-life (male SD rat, PO 10 mg/kg, Lung): 2.7 h
AUC0-24 (male SD rat, PO 10 mg/kg, Skin): 7864 ng·h/g
AUC0-inf (male SD rat, PO 10 mg/kg, Skin): 9352 ng·h/g
AUC0-last (male SD rat, PO 10 mg/kg, Skin): 7864 ng·h/g
Cmax (male SD rat, PO 10 mg/kg, Skin): 868 ng/g
Tmax (male SD rat, PO 10 mg/kg, Skin): 0.5 h
half-life (male SD rat, PO 10 mg/kg, Skin): 8.6 h
AUC0-24 [10]: 73082 ng·h/g
AUC0-inf [10]: 73697 ng·h/g
AUC0-last [10]: 73822 ng·h/g
Cmax [10]: 16500 ng/g
Tmax [10]: 0.5 h
half-life [10]: 3.41 h
AUC0-24 [11]: 13189 ng·h/g
AUC0-inf [11]: 13631 ng·h/g
AUC0-last [11]: 13189 ng·h/g
Cmax [11]: 4230 ng/g
Tmax [11]: 0.5 h
half-life [11]: 4.91 h
Kp (male, SD, bladder / plasma, po, male SD rat, PO 10 mg/kg, Bladder, Tissue AUC0-last/Plasma AUC0-last, read-out: AUC Ratio): 3.37
Kp (male, SD, bone marrow / plasma, po, male SD rat, PO 10 mg/kg, Bone Marrow, Tissue AUC0-last/Plasma AUC0-last, read-out: AUC Ratio): 3.97
Kp (male, SD, large intestine / plasma, po, male SD rat, PO 10 mg/kg, Large intestine, Tissue AUC0-last/Plasma AUC0-last, read-out: AUC Ratio): 16.7
Kp (male, SD, liver / plasma, po, male SD rat, PO 10 mg/kg, Liver, Tissue AUC0-last/Plasma AUC0-last, read-out: AUC Ratio): 7.5
Kp (male, SD, lung / plasma, po, male SD rat, PO 10 mg/kg, Lung, Tissue AUC0-last/Plasma AUC0-last, read-out: AUC Ratio): 1.82
Kp (male, SD, skin / plasma, po, male SD rat, PO 10 mg/kg, Skin, Tissue AUC0-last/Plasma AUC0-last, read-out: AUC Ratio): 2.91
Kp (male, SD, small intestine / plasma, po, male SD rat, PO 10 mg/kg, Small intestine, Tissue AUC0-last/Plasma AUC0-last, read-out: AUC Ratio): 27
Kp (male, SD, spleen / plasma, po, male SD rat, PO 10 mg/kg, Spleen, Tissue AUC0-last/Plasma AUC0-last, read-out: AUC Ratio): 4.88
Kp (male, Sprague-Dawley, epididymis and testis, po, male SD rat, PO 10 mg/kg, Epididymis & Testis, Tissue AUC0-last/Plasma AUC0-last, read-out: AUC Ratio): 1.91
Kp (male, Sprague-Dawley, eyeball (left and right), po, male SD rat, PO 10 mg/kg, Eyeball (left and right), Tissue AUC0-last/Plasma AUC0-last, read-out: AUC Ratio): 0.492
Kp (male, Sprague-Dawley, fat, po, male SD rat, PO 10 mg/kg, Fat, Tissue AUC0-last/Plasma AUC0-last, read-out: AUC Ratio): 0.513
Kp (male, Sprague-Dawley, heart, po, male SD rat, PO 10 mg/kg, Heart, Tissue AUC0-last/Plasma AUC0-last, read-out: AUC Ratio): 1.11
Kp (male, Sprague-Dawley, kidney (left and right), po, male SD rat, PO 10 mg/kg, Kidney (left and right), Tissue AUC0-last/Plasma AUC0-last, read-out: AUC Ratio): 8.35
AUC(0-t) (male, Sprague-Dawley, po, male SD rat, PO 10 mg/kg, read-out: AUC0-24): 2910 ng·h/mL
AUC(0-t) (male, Sprague-Dawley, po, male SD rat, PO 10 mg/kg, read-out: AUC0-last): 2700 ng·h/mL
Kp (male, Sprague-Dawley, testis, oral, SD rat, Testis, read-out: Tissue/Plasma Ratio (AUCinf)): 1.6
Cmax [12]: 976 ng/g
Tmax [12]: 0.5 h
half-life [12]: 2.68 h

Reference: patent US20260048051A1, “TREATMENT OF INFLAMMATORY BOWEL DISEASE” (Atomwise Inc., priority 2024, published 2026)
